Our source for the CC50 values is paper PMC6072100, “Exploring the links between peptoid antibacterial activity and toxicity” (MedChemComm, 2017).

Square brackets hold non-standard residues; d marks the D form. Peptide text beside a SMILES is read from it. N(4-F-Bzl)Gly = O=C(O)CNCc1ccc(F)cc1; Gly(N-(CH2)6NH2) = NCCCCCCNCC(=O)O; Nspe = C[C@H](NCC(=O)O)c1ccccc1; NhArg = N=C(N)NCCCCNCC(=O)O; Nphe = O=C(O)CNCc1ccccc1; Nlys = NCCCCNCC(=O)O

Data set [1] is described as follows: Cytotoxicity assay with HepG2 (alamarBlue). The data set is classed as cell-based, human. Conditions: human, HepG2 cells. As to the method:
The activity of our peptoid library was assessed against both bacterial and mammalian cells to gain a broader understanding of the factors that lead to effective and selective antimicrobial peptoids. We screened for broad-spectrum antibacterial activity against Gram-negative (Escherichia coli and Pseudomonas aeruginosa) and Gram-positive (Staphylococcus aureus and S. epidermidis) bacteria. The toxicity of the library was also assessed against two mammalian cell lines; HaCaT spontaneously transformed aneuploid keratinocytes were employed to model toxicity against human skin cells and HepG2, a cell line derived from a human liver carcinoma, were used as a study on polarised human hepatocytes. Detailed methods for these assays can be found in the ESI. ^‡ […]
Please note – ED50, the median effective dose, was defined as the dose that kills 50% of cells.
Cytotoxicity analyses were performed in 96-well plates (Costar, Fisher Scientific) using alamarBlue® (Invitrogen) for cell viability detection using a modified protocol as described previously. HepG2 or HaCaT cells were subcultured at 37 °C, 5% CO2 in DMEM high glucose supplemented with heat-inactivated foetal bovine sera (FBS, 10%; Biosera Ltd) and penicillin/streptomycin (P/S, 1%). Cells were counted using a Neubauer Improved Haemocytometer. HepG2 cells were seeded 1 day prior to treatment in 96 well plates at a concentration of 2 × 10^5 cells per mL in 100 μL of medium (2 × 10^4 cells per well). Then cells were pre-incubated with the compounds in triplicate in a dilution series in triplicate from 2–100 μM (5 mM stock solutions in DMSO diluted from 100 μM to 3 μM; untreated cells with DMSO as a negative control) in 50 μl of the media for 1 hour. Afterwards, 40 μL were removed from each well before the addition of 90 μL of the media, followed by incubation for 24 hours at 37 °C, 5% CO2. Then, 10 μL of alamarBlue® (Invitrogen) was added to each well before a 2 hour incubation prior to assessing cell viability using a fluorescent plate reader (Biotek; Ex 560 nm/Em 600 nm). All data were measured in triplicate on a minimum of two occasions to ensure a robust data set was collected. The ED50 values were calculated from the dose response results achieved from the serial dilutions.
Cytotoxicity assay with HepG2
Cytotoxicity analyses were performed in 96-well plates (Costar, Fisher Scientific) using alamarBlue® (Invitrogen) for cell viability detection using a modified protocol as previously described. The HepG2 cells were grown at 37 °C, 5% CO2 in DMEM high glucose supplemented with heat-inactivated foetal bovine sera (FBS, 10%; Biosera Ltd) and penicillin/streptomycin (P/S, 1%). Cells were counted using a Neubauer Improved Haemocytometer. HepG2 cells were seeded 1 day prior to treatment in 96 well plates at a concentration of 2x10^5 cells/mL in 100 µL of medium (2x10^4 cells/well). Then cells were pre-incubated with the compounds in triplicate (5 mM stock solutions in DMSO diluted from 100 µM to 3 µM; untreated cells with DMSO as a negative control) in 50 µl of the media for 1 hour.
Afterwards, 40 µL were removed from each well before the addition of 90 µL of the media, followed by incubation for 24 hours at 37 °C, 5% CO2. Then, 10 µL of alamarBlue® (Invitrogen) was added to each well before a 2 hour incubation prior to assessing cell viability using a fluorescent plate reader (Biotek; Ex 560 nm / Em 600 nm). All data was measured in triplicate on a minimum of two occasions to ensure a robust data set was collected. The ED50 values were calculated from the dose response results achieved from the serial dilutions. […]
5% CO2 in DMEM high glucose supplemented with heat-inactivated foetal bovine sera (FBS, 10%; Biosera Ltd) and penicillin/streptomycin (P/S, 1%). Cells were counted using a Neubauer […]
Empty wells were filled with 100 µL PBS. After 24 hours, cells were incubated with the compounds in a dilution series in triplicate from 2 – 100 µM (5 mM stock solutions in DMSO […]
For orientation: The colour change of resazurin is a common sign of viable cells or microbes.

Data set [2] is described as follows: Skin cell toxicity assay with HaCaT (alamarBlue). Type of data set: cell-based, human. Conditions: human, HaCaT cells (keratinocytes). Put shortly:
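HaCaT cells seeded at 2x10^4 per well 24 hours before 1-hour exposure to a 2–100 µM triplicate dilution series in DMEM high glucose with 10% FBS at 37 °C, 5% CO2. Viability assessed with alamarBlue; ED50 defined as dose killing 50% of cells, derived from dose-response data.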

The mark [3] stands for this setting: dose that kills 50% of cells, 2–100 μM, 1 h with compound then 24 h, alamarBlue, read-out: ED50 HepG2.
The mark [4] stands for this setting: dose that kills 50% of cells, 2–100 μM, 1 h with compound then 24 h, alamarBlue, read-out: ED50 HaCaT.

For `C[C@@H](c1ccccc1)N(CC(N)=O)C(=O)CN(C(=O)CN(CCCCN)C(=O)CN(C(=O)CN(C(=O)CN(CCCCN)C(=O)CN(C(=O)CN(C(=O)CN(CCCCN)C(=O)CN(C(=O)CN(C(=O)CNCCCCN)[C@@H](C)c1ccccc1)[C@@H](C)c1ccccc1)[C@@H](C)c1ccccc1)[C@@H](C)c1ccccc1)[C@@H](C)c1ccccc1)[C@@H](C)c1ccccc1)[C@@H](C)c1ccccc1` [Peptoid 13, (NLysNspeNspe)4] (H-[Nlys][Nspe][Nspe][Nlys][Nspe][Nspe][Nlys][Nspe][Nspe][Nlys][Nspe][Nspe]-NH2), the CC50 at 24 h in data set [1] (setting [3]) was found to be 29 µM; in data set [2] (setting [4]) it was 20 µM.

Take `COc1ccc(CN(CC(N)=O)C(=O)CN(Cc2ccc(OC)cc2)C(=O)CN(CCCCN)C(=O)CN(Cc2ccc(OC)cc2)C(=O)CN(Cc2ccc(OC)cc2)C(=O)CN(CCCCN)C(=O)CN(Cc2ccc(OC)cc2)C(=O)CN(Cc2ccc(OC)cc2)C(=O)CN(CCCCN)C(=O)CN(Cc2ccc(OC)cc2)C(=O)CN(Cc2ccc(OC)cc2)C(=O)CNCCCCN)cc1` [Peptoid 19, (NLysNpmbNpmb)4]: the CC50 at 24 h in data set [1] (ED50 HepG2) stood at 100 µM; in data set [2] (ED50 HaCaT), 41 µM.

On to `C[C@@H](c1ccccc1)N(CC(N)=O)C(=O)CN(C(=O)CN(CCCCCCN)C(=O)CN(C(=O)CN(C(=O)CN(CCCCCCN)C(=O)CN(C(=O)CN(C(=O)CN(CCCCCCN)C(=O)CN(C(=O)CN(C(=O)CNCCCCCCN)[C@@H](C)c1ccccc1)[C@@H](C)c1ccccc1)[C@@H](C)c1ccccc1)[C@@H](C)c1ccccc1)[C@@H](C)c1ccccc1)[C@@H](C)c1ccccc1)[C@@H](C)c1ccccc1` [Peptoid 10, (NahNspeNspe)4] (H-[Gly(N-(CH2)6NH2)][Nspe][Nspe][Gly(N-(CH2)6NH2)][Nspe][Nspe][Gly(N-(CH2)6NH2)][Nspe][Nspe][Gly(N-(CH2)6NH2)][Nspe][Nspe]-NH2; N-terminus assumed), for which the values for the CC50 at 24 h in data set [1] (ED50 HepG2) and in data set [2] (ED50 HaCaT) were 41 µM and 23 µM, respectively.

`NCCCCNCC(=O)N(CC(=O)N(CC(=O)N(CCCCN)CC(=O)N(CC(=O)N(CC(=O)N(CCCCN)CC(=O)N(CC(=O)N(CC(N)=O)Cc1ccccc1)Cc1ccccc1)Cc1ccccc1)Cc1ccccc1)Cc1ccccc1)Cc1ccccc1` [Peptoid 5, (NLysNpheNphe)3]: the CC50 at 24 h in data set [1] (ED50 HepG2) and in data set [2] (ED50 HaCaT) was 100 µM each time.

With `NCCCCNCC(=O)N(CC(=O)N(CC(=O)N(CCCCN)CC(=O)N(CC(=O)N(CC(N)=O)Cc1ccccc1)Cc1ccccc1)Cc1ccccc1)Cc1ccccc1` [Peptoid 6, (NLysNpheNphe)2] (H-[Nlys][Nphe][Nphe][Nlys][Nphe][Nphe]-NH2), the CC50 at 24 h in data set [1] (ED50 HepG2) and in data set [2] (ED50 HaCaT) was 100 µM each time.

Consider `C[C@@H](c1ccccc1)N(CC(N)=O)C(=O)CN(C(=O)CN(CCCCNC(=N)N)C(=O)CN(C(=O)CN(C(=O)CN(CCCCNC(=N)N)C(=O)CN(C(=O)CN(C(=O)CN(CCCCNC(=N)N)C(=O)CN(C(=O)CN(C(=O)CNCCCCNC(=N)N)[C@@H](C)c1ccccc1)[C@@H](C)c1ccccc1)[C@@H](C)c1ccccc1)[C@@H](C)c1ccccc1)[C@@H](C)c1ccccc1)[C@@H](C)c1ccccc1)[C@@H](C)c1ccccc1` [Peptoid 34, (NhArgNspeNspe)4] (H-[NhArg][Nspe][Nspe][NhArg][Nspe][Nspe][NhArg][Nspe][Nspe][NhArg][Nspe][Nspe]-NH2), for which the CC50 at 24 h in data set [1] (ED50 HepG2) was found to be 12 µM; in data set [2] (ED50 HaCaT), 11 µM.

On to `C[C@@H](c1ccccc1)N(CC(N)=O)C(=O)CN(Cc1ccc(F)cc1)C(=O)CN(CCCCN)C(=O)CN(C(=O)CN(Cc1ccc(F)cc1)C(=O)CN(CCCCN)C(=O)CN(C(=O)CN(Cc1ccc(F)cc1)C(=O)CNCCCCN)[C@@H](C)c1ccccc1)[C@@H](C)c1ccccc1` [Peptoid 27, (NLysNpfbNspe)3], for which the CC50 at 24 h in data set [1] (setting [3]) turned out to be 36 µM; in data set [2] (setting [4]), 52 µM.

Regarding `NCCCCNCC(=O)N(CC(=O)N(CC(=O)N(CCCCN)CC(=O)N(CC(=O)N(CC(=O)N(CCCCN)CC(=O)N(CC(=O)N(CC(=O)N(CCCCN)CC(=O)N(CC(=O)N(CC(N)=O)Cc1ccc(F)cc1)Cc1ccc(F)cc1)Cc1ccc(F)cc1)Cc1ccc(F)cc1)Cc1ccc(F)cc1)Cc1ccc(F)cc1)Cc1ccc(F)cc1)Cc1ccc(F)cc1` [Peptoid 22, (NLysNpfbNpfb)4] (H-[Nlys][N(4-F-Bzl)Gly][N(4-F-Bzl)Gly][Nlys][N(4-F-Bzl)Gly][N(4-F-Bzl)Gly][Nlys][N(4-F-Bzl)Gly][N(4-F-Bzl)Gly][Nlys][N(4-F-Bzl)Gly][N(4-F-Bzl)Gly]-NH2), the CC50 at 24 h was found to be 30 µM in data set [1] (ED50 HepG2) and 46 µM in data set [2] (ED50 HaCaT).

Take `C[C@@H](c1ccccc1)N(CC(N)=O)C(=O)CN(C(=O)CN(CCCCCCN)C(=O)CN(C(=O)CN(C(=O)CN(CCCCCCN)C(=O)CN(C(=O)CN(C(=O)CNCCCCCCN)[C@@H](C)c1ccccc1)[C@@H](C)c1ccccc1)[C@@H](C)c1ccccc1)[C@@H](C)c1ccccc1)[C@@H](C)c1ccccc1` [Peptoid 11, (NahNspeNspe)3] (H-[Gly(N-(CH2)6NH2)][Nspe][Nspe][Gly(N-(CH2)6NH2)][Nspe][Nspe][Gly(N-(CH2)6NH2)][Nspe][Nspe]-NH2): the CC50 at 24 h in data set [1] (ED50 HepG2) and in data set [2] (ED50 HaCaT) was 100 µM throughout.

`NCCCCNCC(=O)N(CC(=O)N(CC(=O)N(CCCCN)CC(=O)N(CC(=O)N(CC(=O)N(CCCCN)CC(=O)N(CC(=O)N(CC(=O)N(CCCCN)CC(=O)N(CC(=O)N(CC(N)=O)Cc1cccc(F)c1)Cc1cccc(F)c1)Cc1cccc(F)c1)Cc1cccc(F)c1)Cc1cccc(F)c1)Cc1cccc(F)c1)Cc1cccc(F)c1)Cc1cccc(F)c1` [Peptoid 24, (NLysNmfbNmfb)4]: the values for the CC50 at 24 h in data set [1] (ED50 HepG2) and in data set [2] (ED50 HaCaT) were 17 µM and 25 µM, respectively.

For the molecule `CCCCCN(CC(=O)N(CC(=O)N(CC(=O)N(CCCCN)CC(=O)N(CC(=O)N(CC(N)=O)[C@@H](C)c1ccccc1)[C@@H](C)c1ccccc1)[C@@H](C)c1ccccc1)[C@@H](C)c1ccccc1)C(=O)CN(C(=O)CN(C(=O)CN(CCCCN)C(=O)CN(C(=O)CN(C(=O)CNCCCCN)[C@@H](C)c1ccccc1)[C@@H](C)c1ccccc1)[C@@H](C)c1ccccc1)[C@@H](C)c1ccccc1` [Peptoid 32, (NLysNspeNspe)2(NamyNspeNspe)(NLysNspeNspe)], the CC50 at 24 h in data set [1] (ED50 HepG2) was found to be 22 µM; in data set [2] (ED50 HaCaT) it was 20 µM.
